What was measured:
[1] = test system: MDA-MB-436 cells; test: Growth inhibition assay against BRCA mutant human breast cancer MDA-MB-436 cell line (CCK-8, 7 days); assay type: cell-based
[2] = target: recombinant poly(ADP-ribose) polymerase 2 (PARP2) (Homo sapiens, UniProt Q9UGN5); test: biochemical; settings: inhibition of PARP2 enzyme activity, chemiluminescence
[3] = target: recombinant poly(ADP-ribose) polymerase 1 (PARP1) (Homo sapiens, UniProt P09874); test: biochemical; settings: inhibition of PARP1 enzyme activity, chemiluminescence
Sequence of recombinant poly(ADP-ribose) polymerase 1 (PARP1) (P09874 whole entry): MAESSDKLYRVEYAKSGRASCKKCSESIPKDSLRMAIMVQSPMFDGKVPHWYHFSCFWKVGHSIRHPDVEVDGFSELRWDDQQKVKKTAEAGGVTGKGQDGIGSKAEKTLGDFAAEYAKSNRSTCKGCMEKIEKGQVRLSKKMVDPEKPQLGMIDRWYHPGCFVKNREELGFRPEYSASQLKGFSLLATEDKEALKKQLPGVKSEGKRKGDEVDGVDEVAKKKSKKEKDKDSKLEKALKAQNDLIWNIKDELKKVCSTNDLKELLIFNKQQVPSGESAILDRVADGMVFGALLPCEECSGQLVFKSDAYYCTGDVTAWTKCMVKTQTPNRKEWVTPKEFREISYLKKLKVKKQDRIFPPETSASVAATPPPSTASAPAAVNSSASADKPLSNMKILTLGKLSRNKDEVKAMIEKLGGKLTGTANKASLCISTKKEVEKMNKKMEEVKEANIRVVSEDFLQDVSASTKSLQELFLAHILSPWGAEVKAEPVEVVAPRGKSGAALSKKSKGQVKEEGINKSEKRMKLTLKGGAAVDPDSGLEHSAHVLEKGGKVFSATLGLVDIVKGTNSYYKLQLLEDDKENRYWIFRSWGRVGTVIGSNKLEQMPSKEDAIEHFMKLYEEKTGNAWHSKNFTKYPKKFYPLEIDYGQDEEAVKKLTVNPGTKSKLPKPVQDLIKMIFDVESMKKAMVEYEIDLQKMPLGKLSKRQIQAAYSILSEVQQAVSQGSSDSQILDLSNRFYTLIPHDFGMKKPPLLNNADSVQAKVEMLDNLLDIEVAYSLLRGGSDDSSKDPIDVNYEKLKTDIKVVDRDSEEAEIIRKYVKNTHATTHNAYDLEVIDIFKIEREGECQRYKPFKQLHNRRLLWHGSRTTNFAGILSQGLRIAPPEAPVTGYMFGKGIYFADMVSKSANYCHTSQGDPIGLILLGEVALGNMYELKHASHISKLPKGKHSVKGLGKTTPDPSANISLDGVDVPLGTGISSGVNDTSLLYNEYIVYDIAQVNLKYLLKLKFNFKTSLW

Sequence of recombinant poly(ADP-ribose) polymerase 2 (PARP2) (Q9UGN5 whole entry): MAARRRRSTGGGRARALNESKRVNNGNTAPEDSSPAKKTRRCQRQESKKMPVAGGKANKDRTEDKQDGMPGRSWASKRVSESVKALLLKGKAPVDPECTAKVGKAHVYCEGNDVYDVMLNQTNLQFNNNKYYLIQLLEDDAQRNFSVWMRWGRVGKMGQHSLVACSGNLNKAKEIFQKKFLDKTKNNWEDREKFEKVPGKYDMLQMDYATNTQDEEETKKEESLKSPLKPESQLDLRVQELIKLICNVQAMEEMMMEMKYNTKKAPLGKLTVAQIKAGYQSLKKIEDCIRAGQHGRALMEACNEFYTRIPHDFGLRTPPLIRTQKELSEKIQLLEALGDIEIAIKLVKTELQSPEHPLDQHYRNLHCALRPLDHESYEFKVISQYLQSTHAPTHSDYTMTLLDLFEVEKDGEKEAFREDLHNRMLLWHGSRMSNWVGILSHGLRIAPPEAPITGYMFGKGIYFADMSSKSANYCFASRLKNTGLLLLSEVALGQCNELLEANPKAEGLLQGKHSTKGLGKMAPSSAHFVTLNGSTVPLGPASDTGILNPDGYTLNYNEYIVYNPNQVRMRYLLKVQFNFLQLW

| SMILES | IC50 [1] [nM] | IC50 [2] [nM] | IC50 [3] [nM] |
| --- | --- | --- | --- |
| CNC(=O)c1ccc(N2CCN(Cc3cc(F)c4c(c3)[nH]c(=O)c3cccn34)CC2)c(C)n1 [Example 40, 7-((4-(2-methyl-6-(methylcarbamoyl)pyridin-3-yl)piperazin-1-yl)methyl)-9-fluoropyrrolo[1,2-a]quinoxalin-4(5H)-one] | 1.15 | 38.7 | 1.54 |
| CNC(=O)c1ccc(N2CCN(Cc3ccc4c(c3)[nH]c(=O)c3c(C)ccn34)CC2)c(C)n1 [Example 56, 7-((4-(2-methyl-6-(methylcarbamoyl)pyridin-3-yl)piperazin-1-yl)methyl)-3-methylpyrrolo[1,2-a]quinoxalin-4(5H)-one] | 0.65 | 37.9 | 2.32 |
| CNC(=O)c1ccc(N2CCN(Cc3cc(F)c4c5c(c(=O)[nH]c4c3)CCC5)CC2)c(F)n1 [Example 80, 7-((4-(2-fluoro-6-(methylcarbamoyl)pyridin-3-yl)piperazin-1-yl)methyl)-9-fluoro-1,2,3,5-tetrahydro-4H-cyclopenta[c]quinolin-4-one] | 2.37 | 32 | 2.26 |
| CNC(=O)c1ccc(N2CCN(Cc3cc(F)c4c(c3)[nH]c(=O)c3cc(C)nn34)CC2)c(F)n1 [Example 73, 7-((4-(2-fluoro-6-(methylcarbamoyl)pyridin-3-yl)piperazin-1-yl)methyl)-9-fluoro-2-methylpyrazolo[1,5-a]quinoxalin-4(5H)-one] | 1.77 | 78.1 | 1.96 |
| CNC(=O)c1ccc(N2CCN(Cc3ccc4c(c3)[nH]c(=O)c3cc(C)nn34)CC2)c(Cl)n1 [Example 70, 7-((4-(2-chloro-6-(methylcarbamoyl)pyridin-3-yl)piperazin-1-yl)methyl)-2-methylpyrazolo[1,5-a]quinoxalin-4(5H)-one] | 1.41 | 103 | 1.37 |
| CNC(=O)c1ccc(N2CCN(Cc3cc(F)c4c(c3)[nH]c(=O)c3c(C)cnn34)CC2)c(C)n1 [Example 78, 7-((4-(2-methyl-6-(methylcarbamoyl)pyridin-3-yl)piperazin-1-yl)methyl)-9-fluoro-3-methylpyrazolo[1,5-a]quinoxalin-4(5H)-one] | 1 | 153 | 1.38 |
| CNC(=O)c1ccc(N2CCN(Cc3ccc4c5c(c(=O)[nH]c4c3)COC5)CC2)c(F)n1 [Example 2, 7-((4-(2-fluoro-6-(methylcarbamoyl)pyridin-3-yl)piperazin-1-yl)methyl)-3,5-dihydrofuro[3,4-c]quinolin-4(1H)-one] | 2.65 | 128 | 1.91 |
| CNC(=O)c1ccc(N2CCN(Cc3ccc4c(c3)[nH]c(=O)c3cccn34)CC2)c(Cl)n1 [Example 35, 7-((4-(2-chloro-6-(methylcarbamoyl)pyridin-3-yl)piperazin-1-yl)methyl)pyrrolo[1,2-a]quinoxalin-4(5H)-one] | 0.39 | 26.3 | 0.81 |
| CNC(=O)c1ccc(N2CCN(Cc3ccc4c(c3)[nH]c(=O)c3c(Cl)cnn34)CC2)c(C)n1 [Example 98, 7-((4-(2-methyl-6-(methylcarbamoyl)pyridin-3-yl)piperazin-1-yl)methyl)-3-chloropyrazolo[1,5-a]quinoxalin-4(5H)-one] | 0.62 | 41 | 1.91 |
| CNC(=O)c1ccc(N2CCN(Cc3cc(F)c4c(c3)[nH]c(=O)c3cc(Cl)nn34)CC2)c(C)n1 [Example 87, 7-((4-(2-methyl-6-(methylcarbamoyl)pyridin-3-yl)piperazin-1-yl)methyl)-2-chloro-9-fluoropyrazolo[1,5-a]quinoxalin-4(5H)-one] | 0.94 | 84.1 | 1.22 |
| CNC(=O)c1ccc(N2CCN(Cc3ccc4c(c3)[nH]c(=O)c3c(C)c(C)nn34)CC2)c(C)n1 [Example 101, 7-((4-(2-methyl-6-(methylcarbamoyl)pyridin-3-yl)piperazin-1-yl)methyl)-2,3-dimethylpyrazolo[1,5-a]quinoxalin-4(5H)-one] | 2.48 | 35.6 | 4.43 |
| CNC(=O)c1ccc(N2CCN(Cc3ccc4c(c3)[nH]c(=O)c3ccc(C)n34)CC2)c(C)n1 [Example 54, 7-((4-(2-methyl-6-(methylcarbamoyl)pyridin-3-yl)piperazin-1-yl)methyl)-1-methylpyrrolo[1,2-a]quinoxalin-4(5H)-one] | 1.85 | 12.7 | 1.32 |
| CNC(=O)c1ccc(N2CCN(Cc3ccc4c([nH]c(=O)c5ccnn54)c3F)CC2)c(F)n1 [Example 95, 7-((4-(2-fluoro-6-(methylcarbamoyl)pyridin-3-yl)piperazin-1-yl)methyl)-6-fluoropyrazolo[1,5-a]quinoxalin-4(5H)-one] | 6.78 | 886 | 1.82 |
| Cc1nc(C(=O)NC2CC2)ccc1N1CCN(Cc2ccc3c(c2)[nH]c(=O)c2ccnn23)CC1 [Example 62, 7-((4-(2-methyl-6-(cyclopropylcarbamoyl)pyridin-3-yl)piperazin-1-yl)methyl)pyrazolo[1,5-a]quinoxalin-4(5H)-one] | 3.42 | 150 | 0.29 |
| CNC(=O)c1ccc(N2CCN(Cc3ccc4c([nH]c(=O)c5ccnn54)c3F)CC2)c(C)n1 [Example 94, 7-((4-(2-methyl-6-(methylcarbamoyl)pyridin-3-yl)piperazin-1-yl)methyl)-6-fluoropyrazolo[1,5-a]quinoxalin-4(5H)-one] | 5.05 | > 10000 | 2.69 |
| CNC(=O)c1ccc(N2CCN(Cc3ccc4c5c(c(=O)[nH]c4c3)COC5)CC2)c(C)n1 [Example 4, 7-((4-(2-methyl-6-(methylcarbamoyl)pyridin-3-yl)piperazin-1-yl)methyl)-3,5-dihydrofuro[3,4-c]quinolin-4(1H)-one] | 4.22 | 188 | 1.59 |
| CNC(=O)c1ccc(N2CCN(Cc3ccc4c(c3)[nH]c(=O)c3cc(Cl)nn34)CC2)c(C)n1 [Example 100, 7-((4-(2-methyl-6-(methylcarbamoyl)pyridin-3-yl)piperazin-1-yl)methyl)-2-chloropyrazolo[1,5-a]quinoxalin-4(5H)-one] | 0.68 | 65.6 | 0.95 |
| CNC(=O)c1ccc(N2CCN(Cc3cc(F)c4c(c3)[nH]c(=O)c3ccnn34)CC2)c(F)n1 [Example 44, 7-((4-(2-fluoro-6-(methylcarbamoyl)pyridin-3-yl)piperazin-1-yl)methyl)-9-fluoropyrazolo[1,5-a]quinoxalin-4(5H)-one] | 2.17 | 318 | 1.76 |
| O=C(NC1CC1)c1ccc(N2CCN(Cc3cc(F)c4c(c3)[nH]c(=O)c3cccn34)CC2)c(Cl)n1 [Example 68, 7-((4-(2-chloro-6-(cyclopropylcarbamoyl)pyridin-3-yl)piperazin-1-yl)methyl)-9-fluoropyrrolo[1,2-a]quinoxalin-4(5H)-one] | 2.92 | 90.1 | 1.61 |
| CNC(=O)c1ccc(N2CCN(Cc3ccc4c(c3)[nH]c(=O)c3cncn34)CC2)c(F)n1 [Example 38, 7-((4-(2-fluoro-6-(methylcarbamoyl)pyridin-3-yl)piperazin-1-yl)methyl)imidazo[1,5-a]quinoxalin-4(5H)-one] | 4.06 | 59.9 | 0.3 |
| CNC(=O)c1ccc(N2CCN(Cc3cc(F)c4c(c3)[nH]c(=O)c3sccc34)CC2)c(C)n1 [Example 114, 7-((4-(2-methyl-6-(methylcarbamoyl)pyridin-3-yl)piperazin-1-yl)methyl)-9-fluorothieno[2,3-c]quinolin-4(5H)-one] | 3.72 | 16.9 | 0.67 |
| Cc1nc(C(=O)NCO)ccc1N1CCN(Cc2cc(F)c3c(c2)[nH]c(=O)c2ccnn23)CC1 [Example 117, 7-((4-(2-methyl-6-(N-(hydroxymethyl)carbamoyl)pyridin-3-yl)piperazin-1-yl)methyl)-9-fluoropyrazolo[1,5-a]quinoxalin-4(5H)-one] | 4.74 | 645 | 0.91 |
| Cc1nc(C(=O)NC2CC2)ccc1N1CCN(Cc2ccc3c(c2)[nH]c(=O)c2cccn23)CC1 [Example 59, 7-((4-(2-methyl-6-(cyclopropylcarbamoyl)pyridin-3-yl)piperazin-1-yl)methyl)pyrrolo[1,2-a]quinoxalin-4(5H)-one] | 0.99 | 21.9 | 1.39 |
| CNC(=O)c1ccc(N2CCN(Cc3ccc4c(c3)[nH]c(=O)c3ccnn34)CC2)c(C)n1 [Example 28, 7-((4-(2-methyl-6-(methylcarbamoyl)pyridin-3-yl)piperazin-1-yl)methyl)pyrazolo[1,5-a]quinoxalin-4(5H)-one] | 0.98 | > 3000 | 0.77 |
| CNC(=O)c1ccc(N2CCN(Cc3cc(F)c4c(c3)[nH]c(=O)c3c(C)cnn34)CC2)c(F)n1 [Example 76, 7-((4-(2-fluoro-6-(methylcarbamoyl)pyridin-3-yl)piperazin-1-yl)methyl)-9-fluoro-3-methylpyrazolo[1,5-a]quinoxalin-4(5H)-one] | 1.37 | 64.6 | 2.1 |
| CNC(=O)c1ccc(N2CCN(Cc3cc(F)c4c(c3)[nH]c(=O)n3ccnc43)CC2)c(Cl)n1 [Example 119, 8-((4-(2-chloro-6-(methylcarbamoyl)pyridin-3-yl)piperazin-1-yl)methyl)-10-fluoroimidazo[1,2-c]quinazolin-5(6H)-one] | 16.2 | 9500 | 1.83 |
| Cc1nc(C(=O)NC2CC2)ccc1N1CCN(Cc2cc(F)c3c(c2)[nH]c(=O)c2ccnn23)CC1 [Example 92, 7-((4-(2-methyl-6-(cyclopropylcarbamoyl)pyridin-3-yl)piperazin-1-yl)methyl)-9-fluoropyrazolo[1,5-a]quinoxalin-4(5H)-one] | 5.05 | 238 | 1.38 |

From patent US20240368169A1 (priority 2021, published 2024)
